Positions of bridges follow the written chain, without caps; N, C: chain ends. Residues, ends and D or L forms follow the SMILES beside them.

Here are results for 4 molecules from patent US12258424B2, “Polypeptides and compositions comprising the same” (priority 2020, dated 2025).

One data set concerns the target PD1/PD-L1 (Homo sapiens, UniProt Q9NZQ7). The data set is described as follows: IC50 and blocking efficiency against PD1/PD-L1 (Table 5). It counts as binding. As to the method: (§1) Blocking efficiency at 10 μM/IC50 against human and mouse PD1/PD-L1 (ELISA). […] 100 ng of recombinant human PD-L1 protein was coated in 96-well plates at 4° C. for 16 h with shaking over an orbital shaker. Unbound protein was removed by washing twice with PBS (pH 7.2-7.4), 2% BSA was added for 1.5 h at 37° C. to block the plate. Specific concentrations of the peptides were dispensed into the appropriate wells and incubated for 2 h at 37° C. […] This was followed by the addition of streptavidin-HRP and chromogenic substrate (R & D systems). The color reaction was terminated with 2N H2SO4, absorbance was recorded at OD450 and referenced to OD540.

Data set [1] can be described thus: Proteolytic stability in 50% human serum (LC-MS). The format is in vitro ADME. As to the method: Half-life in 50% human serum. Proteolytic stability of the peptides was investigated using LC-MS. Solutions of the anti-PD-L1 peptides were incubated with 50% human serum at […], aliquots were taken at specific time points for processing and subsequent LC-MS analysis.

A short description of data set [2]: Cell viability of DU145 cells (CellTiter-Glo). The format is cell-based. The following applies: human, read-out: % cell viability after incubation with 50 μM peptide. As to the method: % cell viability after incubation with 50 μM peptide. White 96-well plates with clear bottom (Corning, RFE 3610) were seeded with DU145 cells at a density of 1×10^4 cells/well and incubated in a humidified atmosphere at 37° C. with a supply of 5% CO2. After 12 h, various peptide concentrations were added to the cells and incubated for 48 h. CellTiter-Glo kit (Promega, WI) was employed in the cell viability analysis by following the manufacturer's instructions.

Data set [3] addresses T1, mPD-L1 (Mus musculus, UniProt Q9EP73). The data set is described as follows: PD-1/PD-L1 blocking ELISA, mouse proteins. Set-up: purchased Acro Biosystems PD1-M5220 (PD-L1). The format is binding. As to the method: as §1
Target sequence in this assay (Q9EP73 19-238 limits assumed): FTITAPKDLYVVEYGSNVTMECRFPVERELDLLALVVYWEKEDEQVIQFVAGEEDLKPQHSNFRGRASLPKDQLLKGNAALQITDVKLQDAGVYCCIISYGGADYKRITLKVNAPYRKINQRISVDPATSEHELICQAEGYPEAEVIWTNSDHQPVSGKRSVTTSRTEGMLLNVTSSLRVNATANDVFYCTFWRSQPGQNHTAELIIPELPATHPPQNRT
Data set [4] addresses T2, hPD-L1 (Homo sapiens, UniProt Q9NZQ7). The data set is described as follows: PD-1/PD-L1 inhibitor screening ELISA, human proteins. The format is binding. Set-up: purchased Acro Biosystems EP-101. As to the method:
as §1

Data set [5] has as its target T2, hPD-L1. In words: Competitive SPR blocking of PD-L1 binding to immobilized PD-1. Also noted: purchased Acro Biosystems EP-101. As to the method:
% Blocking efficiency at 10 μM (Competitive SPR)/IC50 (competitive SPR) hPD-L1. BI-4500A SPR and a CM-5 sensor chip pre-functionalized with streptavidin (Biosensing Instrument Inc., Tempe, Ariz.) were employed for the SPR analysis. […] Different concentrations of each peptide were incubated with human PD-L1 (AcroBiosystems, cat #EP-101) prior to injection. Human PD-L1 alone was also injected to serve as a control. […] Data was analyzed with SPR Data Analysis Version 3.8.4 (Biosensing Instrument Inc., Tempe, AZ).

Another data set concerns DU145 cancer cell. It counts as cell-based, human. Particulars: DU-145 cancer cells. As to the method: (§2) Ninety-six-well plates were coated with 100 ng of PD-L1 protein (G&P Biosciences, human PD-L1 ECD, cat #FCL0784B. mouse PD-L1, cat #FCL3502B) and later blocked with 2% BSA for 2 hours at room temperature. Various concentrations of peptides were loaded into the wells and incubated for 1 hour at room temperature. […] Streptavidin-HRP (R & D systems) and chromogenic substrate were added into the wells. OD450 was then recorded and referenced to OD540.
The blocking efficiency of the anti-PD-L1 peptides at 10 μM (FIG. 2c). […] The IC50 of each peptide was also determined using recombinant human PD-L1 protein and DU-145 cancer cells.

The subject of data set [6] is Jurkat T cells co-cultured with DU-145 cancer cells. The data set is described as follows: Jurkat T cell proliferation in co-culture with DU-145 cells (CellTiter-Glo). It counts as cell-based, human. The following applies: peptide 5 μM, 24 hours. The method, then:
Proliferation and Apoptosis Assays. […] Briefly, 3×10^4 Jurkat T cells were cultured alone or co-cultured with 1.5×10^5 DU-145 cancer cells in a 24-well plate for the proliferation assay. For the apoptosis assay, 6×10^4 Jurkat T cells were cultured alone or co-cultured with 3×10^5 DU-145 cancer cells in a 6-well plate. After incubation with the anti-PD-L1 peptides (5 μM) or anti-PD-L1 antibody (1 μM) for 24 hours, Jurkat T cells were harvested from the supernatant. Proliferation of Jurkat cells was determined using the CellTiter-Glo luminescent cell viability assay (Promega, WI), and apoptosis of the cells were determined using the Dead Cell Apoptosis Kit with Annexin V Alexa Fluor® 488 and Propidium Iodide (Thermo-Fisher Scientific, Pittsburgh, PA) as we described before^21.

Data set [7] addresses human PD-L1/CD80 interaction (Homo sapiens, UniProt Q9NZQ7). In words: Blockade of the CD80/PD-L1 interaction. Particulars: at 10 μM, FIG. 8a. It counts as binding.
Data set [8] addresses T3, recombinant human PD-L1 ECD protein (Homo sapiens, UniProt Q9NZQ7).
T3 construct: against the recombinant human PD-L1 ECD protein were evaluated using SPR; purchased G&P Biosciences FCL0784B
In words: SPR binding kinetics and affinity to immobilized human PD-L1. Particulars: read-out: Ka. As to the method:
In such aspects, the equilibrium dissociate constant KD value against recombinant human PD-L1 can be determined according to an KD to PD-L1 SPR Assay. The KD to PD-L1 SPR Assay can include the use of Surface Plasmon Resonance (SPR), such as the B14500, Biosensing Instrument, and can include the following procedures. The PD-L1 protein can be diluted to 10 μg/mL with sodium acetate buffer (pH 5.0, GE Healthcare, PA) and covalently coated onto a CM5 sensor chip (CM Dextran Sensor Chip, Biosensing Instrument) using the standard Amine Coupling Kit (GE Healthcare, PA). Approximately 6500 RU of PD-L1 protein are immobilized onto the chip. A second channel is used as a reference. HBS-EP+ buffer (GE Healthcare) can be employed at a flow rate of 60 μL/min. A series of concentrations of each peptide (15, 30, 60, 125, 250, 500, 1000, 5000 and 10,000 nM) is prepared in HBS-EP+ running buffer to obtain the equilibrium dissociation constant (KD) values of the peptides. The CM5 sensor chip can be regenerated with 10 mM NaOH for 20 s. The results can be analyzed using the software of Bi data analysis software.
Evaluation of Binding Kinetics and Affinity By Surface Plasmon Resonance (SPR). Binding affinities of the PD-L1 specific peptides for human PD-L1 protein were determined by SPR (B14500, Biosensing Instrument). PD-L1 protein was diluted to 10 μg/mL with sodium acetate buffer (pH 5.0, GE Healthcare, PA) and covalently coated onto a CM5 sensor chip (CM Dextran Sensor Chip, Biosensing Instrument) using the standard Amine Coupling Kit (GE Healthcare, PA). Approximately 6500 RU of PD-L1 protein were immobilized onto the chip. A second channel was used as a reference. HBS-EP+ buffer (GE Healthcare) was employed at a flow rate of 60 μL/min. A series of concentrations of each peptide (15, 30, 60, 125, 250, 500, 1000, 5000 and 10,000 nM) were prepared in HBS-EP+ running buffer to obtain the equilibrium dissociation constant (KD) values of the peptides. The CM5 sensor chip was regenerated with 10 mM NaOH for 20 seconds. The results were analyzed using the software of Bi data analysis software. Binding affinities of the anti-PD-L1 peptides to BSA was also assessed following the procedure for human PD-L1.

The next data set concerns 4T1 cancer cell. It counts as cell-based, mouse.
In data set [9] the target is T2, hPD-L1. The data set is described as follows: Blockade of the PD-1/PD-L1 interaction, plate coated with human PD-L1 protein. Also noted: PD-L1 protein (G&P Biosciences, human PD-L1 ECD, cat #FCL0784B); purchased G&P Biosciences FCL0784B (PD-L1). It counts as binding. As to the method: as §2
Data set [10] deals with T1, mPD-L1. The data set is described as follows: Blockade of the mouse PD-1/PD-L1 interaction, mouse PD-L1 protein. Also noted: purchased G&P Biosciences FCL3502B (PD-L1). The following applies: mouse PD-L1 protein. The format is binding. The method, then: as §2
Target sequence in this assay (Q9EP73 19-239 limits assumed): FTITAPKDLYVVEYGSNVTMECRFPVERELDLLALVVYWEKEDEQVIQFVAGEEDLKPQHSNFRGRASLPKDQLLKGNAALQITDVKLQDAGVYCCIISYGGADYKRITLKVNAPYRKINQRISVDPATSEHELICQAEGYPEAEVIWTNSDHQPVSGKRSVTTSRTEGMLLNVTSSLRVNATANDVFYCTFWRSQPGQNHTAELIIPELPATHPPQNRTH
A further data set concerns IL-6. The following applies: cancer patients, Herbst et al. 2014; cited from earlier work.

T2 sequence (Q9NZQ7 19-238 limits assumed): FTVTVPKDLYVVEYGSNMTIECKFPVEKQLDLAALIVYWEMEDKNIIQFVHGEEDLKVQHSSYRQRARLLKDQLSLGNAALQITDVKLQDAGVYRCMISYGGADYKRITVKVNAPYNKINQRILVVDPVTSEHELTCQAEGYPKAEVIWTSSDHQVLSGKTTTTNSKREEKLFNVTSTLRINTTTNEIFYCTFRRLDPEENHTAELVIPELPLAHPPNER
Sequence of PD1/PD-L1 (Q9NZQ7 19-238 limits assumed): as above
Sequence of human PD-L1/CD80 interaction (Q9NZQ7 19-238 limits assumed): as above
T3 sequence (Q9NZQ7 19-238 limits assumed): as above

On to `CC(C)C[C@@H]1NC(=O)[C@H](CC(N)=O)NC(=O)[C@H](Cc2c[nH]c3ccccc23)NC(=O)[C@H]([C@@H](C)O)NC(=O)[C@H](Cc2ccc(O)cc2)NC(=O)[C@H](Cc2ccc(O)cc2)NC(=O)[C@H](CO)NC(=O)[C@H](CCCNC(=N)N)NC(=O)[C@H](Cc2c[nH]cn2)NC(=O)[C@@H](N)CSSC[C@@H](C(=O)O)NC(=O)[C@H](CC(N)=O)NC1=O` [CLP2C14] (H-CHRSYYTWNLNC-OH; disulfide 1-12; N-terminus and C-terminus assumed), for which the “% Blocking efficiency at 10 μM” value on PD1/PD-L1 was determined as 75%. Besides, in [1], the half-life came out at 38.1 min. In addition, the viability at 48 h, 50 µM in [2] is about 100%. Moreover, the “% Blocking efficiency at 10 μM (ELISA) mPD-L1” value at mPD-L1 [3] is 89.3%. In addition, the “% Blocking efficiency at 10 μM (ELISA) hPD-L1” value on hPD-L1 [4] was 75.0%. Besides, the “% Blocking efficiency at 10 μM (Competitive SPR) hPD-L1” value on hPD-L1 [5] was found to be 86.8%.

On to `C[C@H](NC(=O)[C@H](CCC(N)=O)NC(=O)[C@H](CC(N)=O)NC(=O)[C@H](C)NC(=O)[C@H](Cc1c[nH]cn1)NC(=O)[C@@H]1CCCN1C(=O)[C@H](CCCNC(=N)N)NC(=O)[C@H](Cc1ccccc1)NC(=O)[C@@H]1CCCN1C(=O)[C@H](Cc1ccc(O)cc1)NC(=O)[C@@H](N)Cc1c[nH]cn1)C(=O)N[C@@H](CO)C(=O)O` [CLP001] (H-HYPFRPHANQAS-OH; N-terminus and C-terminus assumed), for which the “Blocking Efficiency (%)” value in the data set on DU145 cancer cell is listed as 0%; in the data set on 4T1 cancer cell (4T1 cancer cell) it was 35%; at hPD-L1 [9] (human PD-L1 protein), 0%; on mPD-L1 [10] it was 34%. In data set [6], the “Effect on Jurkat T cell proliferation” value is listed as “did not observe the same effect”. Also, the “Blocking efficiency against CD80/PD-L1 interaction” value in [7] is given as “approximately 17%”. The kon in data set [8] was 5190 M⁻¹ s⁻¹. The molecule also came in with an IC50 in the data set with 4T1 cancer cell (2 h) of 910 nM. Moreover, the “Blocking of the human PD-1/PD-L1 interaction (in words)” value at hPD-L1 [9] (peptides at 10 μM, FIG. 2c) was “did not block”.

Turning to `CC(C)C[C@H](NC(=O)[C@H](CC(N)=O)NC(=O)[C@H](Cc1c[nH]c2ccccc12)NC(=O)[C@@H]1CSSC[C@H](N)C(=O)N[C@@H](Cc2c[nH]cn2)C(=O)N[C@@H](CCCNC(=N)N)C(=O)N[C@@H](CO)C(=O)N[C@@H](Cc2ccc(O)cc2)C(=O)N[C@@H](Cc2ccc(O)cc2)C(=O)N1)C(=O)N[C@@H](CC(N)=O)C(=O)N[C@H](C(=O)O)[C@@H](C)O` [CLP2C21] (H-CHRSYYCWNLNT-OH; disulfide 1-7; N-terminus and C-terminus assumed), the “% Blocking efficiency at 10 μM” value on PD1/PD-L1 was determined as 78%. The molecule further had a half-life in [1] of 70.8 min. Further, in [2], the viability at 48 h, 50 µM was about 100%. On mPD-L1 [3], the “% Blocking efficiency at 10 μM (ELISA) mPD-L1” value is 82.6%. On hPD-L1 [4], the “% Blocking efficiency at 10 μM (ELISA) hPD-L1” value is listed as 85.9%. Moreover, on hPD-L1 [5], the “% Blocking efficiency at 10 μM (Competitive SPR) hPD-L1” value stood at 99.4%.

Regarding “MPDL3280A: anti-PD-L1 antibody MPDL3280A (Herbst et al. 2014)”, the “Expression of IL-6 in the blood” value in the data set with IL-6 is listed as “reduced”.
